# From patent US10562912B2 (C&C Research Laboratories, priority 2013, dated 2020)
# Tests used:
# Type in all cases: cell-based
# STAT3 = target: T1, STAT3 (Homo sapiens, UniProt P40763); assay: STAT3 reporter gene assay (luciferase), LNCaP stable cell line (pSTAT3-TA-luc), IL-6 stimulation
# T1 construct: plasmid pSTAT3-TA-luc), which contains a stably operating STAT3 promoter; endogenous in cells
# In short: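 LNCaP cells stably carrying pSTAT3-TA-luc, in RPMI1640 with 3% DCC-FBS, were treated with compound and then stimulated with 10 ng/mL IL-6 for 24–48 h at 37 °C. Luciferase activity was measured in lysates. A parallel plate measured viability by CellTiter-Glo, with stimulated 0.1% DMSO wells as the positive control.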
# AGS = assay: Cell growth inhibition assay, stomach cancer cell line AGS; conditions: Homo sapiens; AGS stomach cancer cell line, 3,000 cells/well
# MDA-MB-231 = assay: Cell growth inhibition assay, breast cancer cell line MDA-MB-231; conditions: Homo sapiens; MDA-MB-231 breast cancer cell line, 5,000 cells/well
# LNCaP = assay: Cell growth inhibition assay, prostate cancer cell line LNCaP (medium with 10 ng/mL IL-6); conditions: Homo sapiens, medium supplemented with 10 ng/mL of IL-6, 10,000 cells/well
# T1 sequence (P40763 whole entry): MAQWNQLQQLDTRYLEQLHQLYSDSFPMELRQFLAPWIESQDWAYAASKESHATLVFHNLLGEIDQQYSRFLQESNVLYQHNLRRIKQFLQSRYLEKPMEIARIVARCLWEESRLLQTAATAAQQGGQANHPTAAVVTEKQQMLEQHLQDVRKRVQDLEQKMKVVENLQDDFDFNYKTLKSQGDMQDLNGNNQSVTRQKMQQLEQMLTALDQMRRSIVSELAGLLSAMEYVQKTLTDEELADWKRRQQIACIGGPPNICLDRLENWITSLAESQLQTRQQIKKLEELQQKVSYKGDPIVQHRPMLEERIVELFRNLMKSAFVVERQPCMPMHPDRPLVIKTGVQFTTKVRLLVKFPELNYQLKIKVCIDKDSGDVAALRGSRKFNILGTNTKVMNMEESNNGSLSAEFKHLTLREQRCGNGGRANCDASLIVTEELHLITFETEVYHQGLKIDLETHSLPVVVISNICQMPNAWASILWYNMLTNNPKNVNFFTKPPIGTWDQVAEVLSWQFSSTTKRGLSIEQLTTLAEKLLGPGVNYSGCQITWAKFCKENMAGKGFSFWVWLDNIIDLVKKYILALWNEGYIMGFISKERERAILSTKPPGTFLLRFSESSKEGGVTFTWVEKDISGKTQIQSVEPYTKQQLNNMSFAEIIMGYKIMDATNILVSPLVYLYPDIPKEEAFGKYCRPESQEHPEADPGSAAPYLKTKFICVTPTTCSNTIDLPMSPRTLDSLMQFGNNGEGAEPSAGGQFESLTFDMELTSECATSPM
structure (smiles),measurement,setting,value
"CS(=O)(=O)Nc1ccc2cc(C(=O)Nc3cccc(-c4ccccc4C(F)(F)F)c3)[nH]c2c1 [Example 260, 6-(methylsulfonamido)-N-(2′-(trifluoromethyl)-[1,1′-biphenyl]-3-yl)-1H-indole-2-carboxamide]",IC50,STAT3,0.71 µM
same,IC50,AGS,2.7 µM
same,IC50,MDA-MB-231,0.92 µM
same,IC50,LNCaP,4.1 µM
"CS(=O)(=O)Nc1ccc2c(C(=O)Nc3cccc(-c4ccc(F)cc4F)c3)c[nH]c2c1 [Example 275, N-(2′,4′-difluoro-[1,1′-biphenyl]-3-yl)-6-(methylsulfonamido)-1H-indole-3-carboxamide]",IC50,STAT3,3.3 µM
same,IC50,AGS,5.7 µM
same,IC50,MDA-MB-231,> 10 µM
same,IC50,LNCaP,9 µM
"CS(=O)(=O)Nc1ccc2cc(C(=O)Nc3cccc(-c4cccnc4C(F)(F)F)c3)[nH]c2c1 [Example 293, 6-(methylsulfonamido)-N-(3-(2-(trifluoromethyl)pyridin-3-yl)phenyl)-1H-indole-2-carboxamide]",IC50,STAT3,2.7 µM
same,IC50,AGS,24.6 µM
same,IC50,MDA-MB-231,1 µM
same,IC50,LNCaP,4.6 µM
"CS(=O)(=O)Nc1ccc2cc(C(=O)Nc3cc(C#N)cc(-c4ccc(F)cc4F)c3)[nH]c2c1 [Example 301, N-(5-cyano-2′,4′-difluoro-[1,1′-biphenyl]-3-yl)-6-(methylsulfonamido)-1H-indole-2-carboxamide]",IC50,STAT3,3.3 µM
same,IC50,AGS,5.7 µM
same,IC50,MDA-MB-231,0.72 µM
same,IC50,LNCaP,3.9 µM
"CN(c1ccc2cc(C(=O)Nc3cc(Br)cc(-c4ccc(F)cc4F)c3)n(C)c2c1)S(C)(=O)=O [Example 341, N-(5-bromo-2′,4′-difluoro-[1,1′-biphenyl]-3-yl)-1-methyl-6-(N-methylmethylsulfonamido)-1H-indole-2-carboxamide]",IC50,STAT3,3.3 µM
same,IC50,AGS,5.3 µM
same,IC50,MDA-MB-231,7.5 µM
same,IC50,LNCaP,6.2 µM
"CN(c1ccc2cc(C(=O)Nc3cc(Br)cc(-c4ccc(F)cc4F)c3)[nH]c2c1)S(C)(=O)=O [Example 342, N-(5-bromo-2′,4′-difluoro-[1,1′-biphenyl]-3-yl)-6-(N-methylmethylsulfonamido)-1H-indole-2-carboxamide]",IC50,STAT3,0.39 µM
same,IC50,AGS,9.6 µM
same,IC50,MDA-MB-231,0.52 µM
same,IC50,LNCaP,5 µM
"COc1cc(NC(=O)c2cc3ccc(N(C)S(C)(=O)=O)cc3[nH]2)cc(-c2ccc(F)cc2F)c1 [Example 347, N-(2′,4′-difluoro-5-methoxy-[1,1′-biphenyl]-3-yl)-6-(N-methylmethylsulfonamido)-1H-indole-2-carboxamide]",IC50,STAT3,1.5 µM
same,IC50,AGS,19.7 µM
same,IC50,MDA-MB-231,0.61 µM
same,IC50,LNCaP,7.9 µM
"COc1cc(NC(=O)c2cc3ccc(N(C)S(C)(=O)=O)cc3n2C)cc(-c2ccc(F)cc2F)c1 [Example 348, N-(2′,4′-difluoro-5-methoxy-[1,1′-biphenyl]-3-yl)-1-methyl-6-(N-methylmethylsulfonamido)-1H-indole-2-carboxamide]",IC50,STAT3,> 10 µM
same,IC50,AGS,4.8 µM
same,IC50,MDA-MB-231,> 10 µM
same,IC50,LNCaP,7.2 µM
"CS(=O)(=O)Nc1ccc2cc(C(=O)Nc3cc(OCC(F)F)cc(-c4ccc(F)cc4F)c3)[nH]c2c1 [Example 366, N-(5-(2,2-difluoroethoxy)-2′,4′-difluoro-[1,1′-biphenyl]-3-yl)-6-(methylsulfonamido)-1H-indole-2-carboxamide]",IC50,STAT3,1.2 µM
same,IC50,AGS,8.9 µM
same,IC50,MDA-MB-231,0.58 µM
same,IC50,LNCaP,6.2 µM
"CC(C)COc1cc(NC(=O)c2cc3ccc(NS(C)(=O)=O)cc3[nH]2)cc(-c2ccc(F)cc2F)c1 [Example 367, N-(2′,4′-difluoro-5-isobutoxy-[1,1′-biphenyl]-3-yl)-6-(methylsulfonamido)-1H-indole-2-carboxamide]",IC50,STAT3,0.38 µM
same,IC50,AGS,9.5 µM
same,IC50,MDA-MB-231,1.1 µM
same,IC50,LNCaP,7.4 µM
"CS(=O)(=O)Nc1ccc2cc(C(=O)Nc3cc(OCC#N)cc(-c4ccc(F)cc4F)c3)[nH]c2c1 [Example 368, N-(5-(cyanomethoxy)-2′,4′-difluoro-[1,1′-biphenyl]-3-yl)-6-(methylsulfonamido)-1H-indole-2-carboxamide]",IC50,STAT3,2.7 µM
same,IC50,AGS,11.5 µM
same,IC50,MDA-MB-231,1.7 µM
same,IC50,LNCaP,9.8 µM
"CS(=O)(=O)Nc1ccc2cc(C(=O)Nc3cccc(C(F)(F)c4cccc(C#N)c4)c3)[nH]c2c1 [Example 390, N-(3-((3-cyanophenyl)difluoromethyl)phenyl)-6-(methylsulfonamido)-1H-indole-2-carboxamide]",IC50,STAT3,3.7 µM
same,IC50,AGS,9.6 µM
same,IC50,MDA-MB-231,1.1 µM
same,IC50,LNCaP,2.5 µM
"CS(=O)(=O)Nc1ccc2cc(C(=O)Nc3cc(OCC(F)F)cc(C(F)(F)c4cccc(C#N)c4)c3)[nH]c2c1 [Example 391, N-(3-((3-cyanophenyl)difluoromethyl)-5-(2,2-difluoroethoxy)phenyl)-6-(methylsulfonamido)-1H-indole-2-carboxamide]",IC50,STAT3,2.4 µM
same,IC50,AGS,18.1 µM
same,IC50,MDA-MB-231,3.3 µM
same,IC50,LNCaP,> 10 µM
"CS(=O)(=O)Nc1ccc2cc(C(=O)Nc3cc(OCC#N)cc(C(F)(F)c4cccc(C#N)c4)c3)[nH]c2c1 [Example 393, N-(3-(cyanomethoxy)-5-((3-cyanophenyl)difluoromethyl)phenyl)-6-(methylsulfonamido)-1H-indole-2-carboxamide]",IC50,STAT3,> 10 µM
same,IC50,AGS,10.3 µM
same,IC50,MDA-MB-231,5 µM
same,IC50,LNCaP,> 10 µM
"CS(=O)(=O)Nc1ccc2cc(C(=O)Nc3cccc(S(=O)(=O)c4cccc(C#N)c4)c3)[nH]c2c1 [Example 402, N-(3-((3-cyanophenyl)sulfonyl)phenyl)-6-(methylsulfonamido)-1H-indole-2-carboxamide]",IC50,STAT3,6.3 µM
same,IC50,AGS,22.1 µM
same,IC50,LNCaP,> 10 µM
"CS(=O)(=O)Nc1ccc2cc(C(=O)Nc3cccc(S(=O)(=O)c4ccccn4)c3)[nH]c2c1 [Example 403, 6-(methylsulfonamido)-N-(3-(pyridin-2-ylsulfonyl)phenyl)-1H-indole-2-carboxamide]",IC50,STAT3,8.2 µM
same,IC50,AGS,34.4 µM
same,IC50,LNCaP,> 10 µM
"CS(=O)(=O)Nc1ccc2cc(C(=O)Nc3cccc(S(=O)(=O)c4cccnc4)c3)[nH]c2c1 [Example 404, 6-(methylsulfonamido)-N-(3-(pyridin-3-ylsulfonyl)phenyl)-1H-indole-2-carboxamide]",IC50,STAT3,> 10 µM
same,IC50,AGS,30.3 µM
same,IC50,LNCaP,> 10 µM
"CS(=O)(=O)Nc1ccc2cc(C(=O)Nc3cccc(S(=O)(=O)c4cccc(Cl)c4)c3)[nH]c2c1 [Example 405, N-(3-((3-chlorophenyl)sulfonyl)phenyl)-6-(methylsulfonamido)-1H-indole-2-carboxamide]",IC50,STAT3,2.4 µM
same,IC50,AGS,14.6 µM
same,IC50,LNCaP,8.6 µM
"CS(=O)(=O)Nc1ccc2cc(C(=O)Nc3cccc(S(=O)(=O)c4cccc(C#N)n4)c3)[nH]c2c1 [Example 406, N-(3-((6-cyanopyridin-2-yl)sulfonyl)phenyl)-6-(methylsulfonamido)-1H-indole-2-carboxamide]",IC50,STAT3,> 10 µM
same,IC50,AGS,17.6 µM
same,IC50,LNCaP,> 10 µM
"COc1cncc(S(=O)(=O)c2cccc(NC(=O)c3cc4ccc(NS(C)(=O)=O)cc4[nH]3)c2)c1 [Example 407, N-(3-((5-methoxypyridin-3-yl)sulfonyl)phenyl)-6-(methylsulfonamido)-1H-indole-2-carboxamide]",IC50,STAT3,5.7 µM
same,IC50,AGS,45.5 µM
same,IC50,LNCaP,> 10 µM
"COc1cccc(S(=O)(=O)c2cccc(NC(=O)c3cc4ccc(NS(C)(=O)=O)cc4[nH]3)c2)n1 [Example 408, N-(3-((6-methoxypyridin-2-yl)sulfonyl)phenyl)-6-(methylsulfonamido)-1H-indole-2-carboxamide]",IC50,STAT3,2.4 µM
same,IC50,AGS,24.2 µM
same,IC50,LNCaP,> 10 µM
"CS(=O)(=O)Nc1ccc2cc(C(=O)Nc3cccc(S(=O)(=O)c4ccc5sccc5c4)c3)[nH]c2c1 [Example 409, N-(3-(benzo[b]thiophen-5-ylsulfonyl)phenyl)-6-(methylsulfonamido)-1H-indole-2-carboxamide]",IC50,STAT3,2.9 µM
same,IC50,AGS,17.3 µM
same,IC50,LNCaP,> 10 µM
"Cc1nc2ccc(S(=O)(=O)c3cccc(NC(=O)c4cc5ccc(NS(C)(=O)=O)cc5[nH]4)c3)cc2s1 [Example 410, N-(3-((2-methylbenzo[d]thiazol-6-yl)sulfonyl)phenyl)-6-(methylsulfonamido)-1H-indole-2-carboxamide]",IC50,STAT3,3.1 µM
same,IC50,AGS,31.3 µM
same,IC50,LNCaP,> 10 µM
"COc1cc(C#N)cc(S(=O)(=O)c2cccc(NC(=O)c3cc4ccc(NS(C)(=O)=O)cc4[nH]3)c2)c1 [Example 411, N-(3-((3-cyano-5-methoxyphenyl)sulfonyl)phenyl)-6-(methylsulfonamido)-1H-indole-2-carboxamide]",IC50,STAT3,3.6 µM
same,IC50,AGS,35.2 µM
same,IC50,LNCaP,> 10 µM
"CS(=O)(=O)Nc1ccc2cc(C(=O)Nc3cccc(S(=O)(=O)c4cccc(CC#N)c4)c3)[nH]c2c1 [Example 412, N-(3-((3-(cyanomethyl)phenyl)sulfonyl)phenyl)-6-(methylsulfonamido)-1H-indole-2-carboxamide]",IC50,STAT3,3.4 µM
same,IC50,AGS,22 µM
same,IC50,LNCaP,> 10 µM
"CS(=O)(=O)Nc1ccc2cc(C(=O)Nc3cccc(S(=O)(=O)c4ccc5c(=O)ccoc5c4)c3)[nH]c2c1 [Example 413, 6-(methylsulfonamido)-N-(3-((4-oxo-4H-chromen-7-yl)sulfonyl)phenyl)-1H-indole-2-carboxamide]",IC50,STAT3,> 10 µM
same,IC50,AGS,> 50 µM
same,IC50,LNCaP,> 10 µM
"CS(=O)(=O)Nc1ccc2cc(C(=O)Nc3cccc(S(=O)(=O)c4cccc(Br)c4)c3)[nH]c2c1 [Example 414, N-(3-((3-bromophenyl)sulfonyl)phenyl)-6-(methylsulfonamido)-1H-indole-2-carboxamide]",IC50,STAT3,1.7 µM
same,IC50,AGS,14.4 µM
same,IC50,LNCaP,9.6 µM
